Measured values from patent US20240217978A1 (CHONG KUN DANG PHARMACEUTICAL CORP., priority 2021, published 2024).

biological target: human adenosine A2a receptor (Homo sapiens (Human), UniProt P29274); test: A2a receptor binding affinity, [3H]-NECA radioligand binding test; details: [3H]-NECA 37 nM; membrane from HEK-293 cells transfected with human adenosine A2a receptor
Procedure: The binding affinity of the compounds according to Examples of the present invention to the human adenosine A2a receptor was evaluated by entrusting SB drug discovery in the UK.
A radioligand binding test was conducted by using [3H]-NECA (5′-N-[adenine-2,8-3H]-ethylcarboxamidoadenosine) and an adenosine A2a membrane. As the adenosine A2a membrane, a cell membrane prepared from HEK-293 cells transfected with human adenosine A2a receptor was used. The membrane used for the test was prepared by incubating with a radioligand until equilibrium was reached. In order to separate the radioligand-bound membrane, the unbound radioligand was separated by using Packard filtermate Harverster and glass filter plates.
10 μL of test compound dissolved in binding buffer (50 mM Tris, 10 mM MgCl2, 1 mM EDTA pH 7.4) and 20 μL of [3H]-NECA (final concentration of 37 nM) or reference inhibitor was mixed with 20 μL of A2a membrane in an unbound 96-well plate and incubated at room temperature for one hour. Prior to filtration, a 96-well harvest filter plate was coated with 0.33% polyethylenimine for 30 minutes and then washed with assay buffer. The binding reaction was transferred to the filter plate and washed three times with wash buffer. The dish was then dried, scintillant was added, and radioactivity was counted in a scintillation counter (Topcount NXT, Packard).
The binding affinity IC50 (μM) for the human adenosine A2a receptor obtained according to the above experimental method is shown in the table below.

Chain of human adenosine A2a receptor (P29274 whole entry): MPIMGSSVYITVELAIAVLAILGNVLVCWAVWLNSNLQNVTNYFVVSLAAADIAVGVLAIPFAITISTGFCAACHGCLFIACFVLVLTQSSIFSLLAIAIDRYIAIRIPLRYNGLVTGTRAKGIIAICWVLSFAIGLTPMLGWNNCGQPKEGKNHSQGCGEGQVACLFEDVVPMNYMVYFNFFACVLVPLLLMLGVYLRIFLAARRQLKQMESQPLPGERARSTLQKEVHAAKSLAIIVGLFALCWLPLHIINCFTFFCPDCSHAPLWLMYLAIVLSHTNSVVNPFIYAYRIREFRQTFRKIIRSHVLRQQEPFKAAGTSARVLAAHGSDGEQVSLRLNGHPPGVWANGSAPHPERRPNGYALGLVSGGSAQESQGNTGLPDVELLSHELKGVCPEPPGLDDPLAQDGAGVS

| IC50 | Compound |
| --- | --- |
| 15 nM | CC(C)[C@H](Nc1nc(N)n2nc(-c3ccco3)nc2n1)C(=O)N1CCN(Cc2ccccc2)CC1 [Example 58, (S)-2-((7-amino-2-(furan-2-yl)-[1,2,4]triazolo[1,5-a][1,3,5]triazin-5-yl)amino)-1-(4-benzylpiperazin-1-yl)-3-methylbutan-1-one] |
| 7 nM | CC(C)[C@H](Nc1nc(N)n2nc(-c3ccco3)nc2n1)C(=O)N1CCN(CC(C)(C)F)CC1 [Example 59, (S)-2-((7-amino-2-(furan-2-yl)-[1,2,4]triazolo[1,5-a][1,3,5]triazin-5-yl)amino)-1-(4-(2-fluoro-2-methylpropyl)piperazin-1-yl)-3-methylbutan-1-one] |
| 18 nM | COCCN1CCN(C(=O)[C@@H](Nc2nc(N)n3nc(-c4ccco4)nc3n2)C(C)C)CC1 [Example 60, (S)-2-((7-amino-2-(furan-2-yl)-[1,2,4]triazolo[1,5-a][1,3,5]triazin-5-yl)amino)-1-(4-(2-methoxyethyl)piperazin-1-yl)-3-methylbutan-1-one] |
| 3 nM | Cc1cccc(NC(=O)N2CCN(C(=O)[C@@H]3CCCN3c3nc(N)n4nc(-c5ccco5)nc4n3)CC2)c1 [Example 61, 4-((7-amino-2-(furan-2-yl)-[1,2,4]triazolo[1,5-a][1,3,5]triazin-5-yl)-L-prolyl)-N-(m-tolyl)piperazin-1-carboxamide] |
| 6 nM | COc1ccc(NC(=O)N2CCN(C(=O)[C@@H]3CCCN3c3nc(N)n4nc(-c5ccco5)nc4n3)CC2)cc1 [Example 62, 4-((7-amino-2-(furan-2-yl)-[1,2,4]triazolo[1,5-a][1,3,5]triazin-5-yl)-L-prolyl)-N-(4-methoxyphenyl)piperazin-1-carboxamide] |
| 1 nM | COc1cccc(C(=O)N2CCN(C(=O)[C@@H]3CCCN3c3nc(N)n4nc(-c5ccco5)nc4n3)CC2)c1 [Example 63] |
| 14 nM | Nc1nc(N2CCC[C@H]2C(=O)N2CCN(C(=O)c3ccc(F)cc3F)CC2)nc2nc(-c3ccco3)nn12 [Example 64, (4-((7-amino-2-(furan-2-yl)-[1,2,4]triazolo[1,5-a][1,3,5]triazin-5-yl)-L-prolyl)piperazin-1-yl)(2,4-difluorophenyl)methanone] |
| 10 nM | Nc1nc(N2CC[C@H]2C(=O)N2CCN(CC(=O)N3CCOCC3)CC2)nc2nc(-c3ccco3)nn12 [Example 65, (S)-2-(4-(1-(7-amino-2-(furan-2-yl)-[1,2,4]triazolo[1,5-a][1,3,5]triazin-5-yl)azetidine-2-carbonyl)piperazin-1-yl)-1-morpholinoethan-1-one] |
| 7 nM | CC(c1ccccc1)N1CCN(C(=O)[C@@H]2CCCN2c2nc(N)n3nc(-c4ccco4)nc3n2)CC1 (stereo partly drawn) [Example 66] |
| 3 nM | Nc1nc(N2CCC[C@H]2C(=O)N2CCN(c3ccc(F)cc3F)CC2)nc2nc(-c3nccs3)nn12 [Example 67, (S)-(1-(7-amino-2-(thiazol-2-yl)-[1,2,4]triazolo[1,5-a][1,3,5]triazin-5-yl)pyrrolidin-2-yl)(4-(2,4-difluorophenyl)piperazin-1-yl)methanone] |
| 9 nM | Nc1nc(N2CCC[C@H]2C(=O)N2CCN(S(=O)(=O)CC3CC3)CC2)nc2nc(-c3ccco3)nn12 [Example 68, (S)-(1-(7-amino-2-(furan-2-yl)-[1,2,4]triazolo[1,5-a][1,3,5]triazin-5-yl)pyrrolidin-2-yl)(4-((cyclopropylmethyl)sulfonyl)piperazin-1-yl)methanone] |
| 68 nM | Nc1nc(N2CCC[C@H]2C(=O)N2CCN(S(=O)(=O)C3CC3)CC2)nc2nc(-c3ccco3)nn12 [Example 69, (S)-(1-(7-amino-2-(furan-2-yl)-[1,2,4]triazolo[1,5-a][1,3,5]triazin-5-yl)pyrrolidin-2-yl)(4-(cyclopropylsulfonyl)piperazin-1-yl)methanone] |
| 4 nM | Nc1nc(N2CCC[C@H]2C(=O)N2CCN(S(=O)(=O)CCOc3ccccc3)CC2)nc2nc(-c3ccco3)nn12 [Example 70, (S)-(1-(7-amino-2-(furan-2-yl)-[1,2,4]triazolo[1,5-a][1,3,5]triazin-5-yl)pyrrolidin-2-yl)(4-((2-phenoxyethyl)sulfonyl)piperazin-1-yl)methanone] |
| 10 nM | CC(C)S(=O)(=O)N1CCN(C(=O)[C@@H]2CCCN2c2nc(N)n3nc(-c4ccco4)nc3n2)CC1 [Example 71, (S)-(1-(7-amino-2-(furan-2-yl)-[1,2,4]triazolo[1,5-a][1,3,5]triazin-5-yl)pyrrolidin-2-yl)(4-(isopropylsulfonyl)piperazin-1-yl)methanone] |
| 1 nM | CCC(C)S(=O)(=O)N1CCN(C(=O)[C@@H]2CCCN2c2nc(N)n3nc(-c4ccco4)nc3n2)CC1 (stereo partly drawn) [Example 72, ((S)-1-(7-amino-2-(furan-2-yl)-[1,2,4]triazolo[1,5-a][1,3,5]triazin-5-yl)pyrrolidin-2-yl)(4-(sec-butylsulfonyl)piperazin-1-yl)methanone] |
| 11 nM | Nc1nc(N2CCC[C@H]2C(=O)N2CCN(C(=O)CC(F)(F)F)CC2)nc2nc(-c3ccco3)nn12 [Example 73, 1-(4-((7-amino-2-(furan-2-yl)-[1,2,4]triazolo[1,5-a][1,3,5]triazin-5-yl)-L-prolyl)piperazin-1-yl)-3,3,3-trifluoropropan-1-one] |
| 13 nM | Nc1nc(N2CCC[C@H]2C(=O)N2CCN(C(=O)C3(C(F)(F)F)CC3)CC2)nc2nc(-c3ccco3)nn12 [Example 74] |
| 9 nM | Nc1nc(N2CCC[C@H]2C(=O)N2CCN(C(=O)C3(C(F)(F)F)CCC3)CC2)nc2nc(-c3ccco3)nn12 [Example 75] |
| 2 nM | Nc1nc(N2CCC[C@H]2C(=O)N2CCN(C(=O)C3(C(F)(F)F)CCCC3)CC2)nc2nc(-c3ccco3)nn12 [Example 76] |
| 0.4 nM | Nc1nc(N2CCC[C@H]2C(=O)N2CCN(C(=O)C3(C(F)(F)F)CCCCC3)CC2)nc2nc(-c3ccco3)nn12 [Example 77] |
| 14 nM | Nc1nc(N2CCC[C@H]2C(=O)N2CCC(C(=O)Nc3ccccc3)CC2)nc2nc(-c3ccco3)nn12 [Example 78, 1-((7-amino-2-(furan-2-yl)-[1,2,4]triazolo[1,5-a][1,3,5]triazin-5-yl)-L-prolyl)-N-phenylpiperidin-4-carboxamide] |
| 11 nM | Nc1nc(N2CCC[C@H]2C(=O)N2CCC(C(=O)Nc3ccccn3)CC2)nc2nc(-c3ccco3)nn12 [Example 79, 1-((7-amino-2-(furan-2-yl)-[1,2,4]triazolo[1,5-a][1,3,5]triazin-5-yl)-L-prolyl)-N-(pyridin-2-yl)piperidin-4-carboxamide] |
| 7 nM | Nc1nc(N2CCC[C@H]2C(=O)N2CCC(C(=O)Nc3cnccn3)CC2)nc2nc(-c3ccco3)nn12 [Example 80, 1-((7-amino-2-(furan-2-yl)-[1,2,4]triazolo[1,5-a][1,3,5]triazin-5-yl)-L-prolyl)-N-(pyrazin-2-yl)piperidin-4-carboxamide] |
| 8 nM | Nc1nc(N2CCC[C@H]2C(=O)N2CCC(C(=O)NCc3ccccc3)CC2)nc2nc(-c3ccco3)nn12 [Example 81, 1-((7-amino-2-(furan-2-yl)-[1,2,4]triazolo[1,5-a][1,3,5]triazin-5-yl)-L-prolyl)-N-benzylpiperidin-4-carboxamide] |
| 6 nM | CN1CCN(c2cccc(C(=O)N3CCN(C(=O)[C@@H]4CCCN4c4nc(N)n5nc(-c6ccco6)nc5n4)CC3)c2)CC1 [Example 82, (4-((7-amino-2-(furan-2-yl)-[1,2,4]triazolo[1,5-a][1,3,5]triazin-5-yl)-L-prolyl)piperazin-1-yl)(3-(4-methylpiperazin-1-yl)phenyl)methanone] |
| 16 nM | Nc1nc(N2CCC[C@H]2C(=O)N2CCN(C(=O)c3ccc(C(F)(F)F)cn3)CC2)nc2nc(-c3ccco3)nn12 [Example 83] |
| 14 nM | Cc1ccc(-c2nc3nc(N4CCC[C@H]4C(=O)N4CCN(C5CCCCC5)CC4)nc(N)n3n2)o1 [Example 84, (S)-(1-(7-amino-2-(5-methylfuran-2-yl)-[1,2,4]triazolo[1,5-a][1,3,5]triazin-5-yl)pyrrolidin-2-yl)(4-cyclohexylpiperazin-1-yl)methanone] |
| 28 nM | CC(C)(F)C(=O)N1CCN(C(=O)[C@@H]2CCCN2c2nc(N)n3nc(-c4ccco4)nc3n2)CC1 [Example 85, 1-(4-((7-amino-2-(furan-2-yl)-[1,2,4]triazolo[1,5-a][1,3,5]triazin-5-yl)-L-prolyl)piperazin-1-yl)-2-fluoro-2-methylpropan-1-one] |
| 15 nM | CC(C)(C(=O)N1CCN(C(=O)[C@@H]2CCCN2c2nc(N)n3nc(-c4ccco4)nc3n2)CC1)C(F)(F)F [Example 86, 1-(4-((7-amino-2-(furan-2-yl)-[1,2,4]triazolo[1,5-a][1,3,5]triazin-5-yl)-L-prolyl)piperazin-1-yl)-3,3,3-trifluoro-2,2-dimethylpropan-1-one] |
| 1 nM | Cc1ccc(-c2nc3nc(N4CCC[C@H]4C(=O)N4CCN(c5ccc(F)cc5F)CC4)nc(N)n3n2)o1 [Example 87, (S)-(1-(7-amino-2-(5-methylfuran-2-yl)-[1,2,4]triazolo[1,5-a][1,3,5]triazin-5-yl)pyrrolidin-2-yl)(4-(2,4-difluorophenyl)piperazin-1-yl)methanone] |
